Source: patent US20220168430A1, “THERAPEUTIC METHODS FOR TREATING HEPATITIS B” (priority 2019, published 2022)
Read-outs that look alike come from different tables or passages of the source.

Tested on: HBV rcDNA
Assay: Dual agent combination in HepDE19 cells, rcDNA by Quantigene 2.0 bDNA assay (Examples 5-8)
Assay type: cell-based, HBV; HepDE19 (HepG2 human hepatocarcinoma derived)
Details: Hepatitis B virus; for EC50: read-out: Avg. Inhibitor A EC50
Description: In vitro dual agent combination studies were conducted using the method of Prichard and Shipman 1990 (Prichard M N, Shipman C, Jr. 1990. Antiviral Res 14:181-205). The HepDE19 cell culture system is a HepG2 (human hepatocarcinoma) derived cell line that supports HBV DNA replication and cccDNA formation under control the control of a CMV Tet-off promoter system (Guo et al. 2007. J Virol 81:12472-84). HepDE19 (50,000 cells/well) were plated in 96 well collagen-coated tissue-culture treated microtiter plates in DMEM/F12 medium supplemented with 10% fetal bovine serum+1% penicillin-streptomycin with tetracycline (1 μg/mL) and incubated in a humidified incubator at 37° C. and 5% CO2 overnight. Next day, the cells were switched to fresh medium without tetracycline and incubated for 4 hrs at 37° C. and 5% CO2. The cells were switched to fresh medium and treated with inhibitor A and inhibitor B, at concentration range spanning their respective EC50 values. […] The two inhibitors were tested both singly as well as in combinations in a checkerboard fashion such that each concentration of inhibitor A was combined with each concentration of inhibitor B to determine their combination effects on inhibition of rcDNA production. There were four replicates of each concentration combination in each experiment. The plates were incubated for 7 days in a humidified incubator at 37° C. and 5% CO2. The level of rcDNA present in the wells was measured using a Quantigene 2.0 bDNA assay kit (Affymetrix, Santa Clara, Calif.) with HBV specific custom probe set (genotype D ayw) and according to the manufacturer's instructions and read using a luminescence plate reader and the relative luminescence units (RLU) data generated from each well was calculated as % inhibition of the untreated control wells and analyzed using the MacSynergy II program to determine whether the combinations were synergistic, additive or antagonistic using the interpretive guidelines established by Prichard and Shipman (Prichard M N, Shipman C, Jr. 1990. […] Each experiment was repeated at least three times and the averages and standard deviations of individual determinations was calculated to derive the conclusion. Concurrently, in each experiment, the effect of inhibitor combinations on cell viability was assessed using replicate plates in triplicates that were used to determine the ATP content as a measure of cell viability using the Cell-Titer Glo reagent (Promega, Madison, Wis.) as per the manufacturer's instructions.

Cn1cnc(COC(=O)N[C@H]2CCc3c(C(=O)Nc4ccc(F)c(Cl)c4)ccc(F)c32)n1 [Compound 1]
inhibition at 0.005 µM (HepDE19, Cmpd 1 0.005 μM, ETV μM by grid row: r7 0.0250, r8 0.0083, r9 0.0028, r10 0.0009, r11 0.0003, r12 0, HepDE19 cells, Expt 1, read-out: AVERAGE % INHIBITION, rcDNA): -5.55% | inhibition at 0.01 µM (HepDE19, Cmpd 1 0.010 μM, ETV μM by grid row: r7 0.0250, r8 0.0083, r9 0.0028, r10 0.0009, r11 0.0003, r12 0, HepDE19 cells, Expt 1, read-out: AVERAGE % INHIBITION, rcDNA): -2.14% | inhibition at 0.02 µM (HepDE19, Cmpd 1 0.020 μM, ETV μM by grid row: r7 0.0250, r8 0.0083, r9 0.0028, r10 0.0009, r11 0.0003, r12 0, HepDE19 cells, Expt 1, read-out: AVERAGE % INHIBITION, rcDNA): 20.8% | inhibition at 0.039 µM (HepDE19, Cmpd 1 0.039 μM, ETV μM by grid row: r7 0.0250, r8 0.0083, r9 0.0028, r10 0.0009, r11 0.0003, r12 0, HepDE19 cells, Expt 1, read-out: AVERAGE % INHIBITION, rcDNA): 28.3% | inhibition at 0.156 µM (HepDE19, Cmpd 1 0.156 μM, ETV μM by grid row: r7 0.0250, r8 0.0083, r9 0.0028, r10 0.0009, r11 0.0003, r12 0, HepDE19 cells, Expt 1, read-out: AVERAGE % INHIBITION, rcDNA): 82% | inhibition at 1.25 µM (HepDE19, Cmpd 1 1.25 μM, ETV μM by grid row: r7 0.0250, r8 0.0083, r9 0.0028, r10 0.0009, r11 0.0003, r12 0, HepDE19 cells, Expt 1, read-out: AVERAGE % INHIBITION, rcDNA): 98.9% | EC50 (HepDE19, Cmpd 1 in combination study with ETV, n = 3): 59 nM | EC50 (HepDE19, Cmpd 1 in combination study with SIRNA-NP, n = 3): 64 nM | EC50 (HepDE19, Cmpd 1 in combination study with TAF, n = 4): 74 nM | EC50 (HepDE19, Cmpd 1 in combination study with TDF, n = 3): 80 nM | inhibition at 0.005 µM (HepDE19, Expt 1 (with TDF), Compound 1 0.005 μM alone, read-out: ADDITIVE INHIBITION): -44.9% | inhibition at 0.005 µM (HepDE19, Expt 1 (with TDF), Compound 1 0.005 μM alone, read-out: AVERAGE % INHIBITION): -44.9% | inhibition at 0.01 µM (HepDE19, Expt 1 (with TDF), Compound 1 0.010 μM alone, read-out: ADDITIVE INHIBITION): -40.7% | inhibition at 0.01 µM (HepDE19, Expt 1 (with TDF), Compound 1 0.010 μM alone, read-out: AVERAGE % INHIBITION): -40.7% | inhibition at 0.02 µM (HepDE19, Expt 1 (with TDF), Compound 1 0.020 μM alone, read-out: ADDITIVE INHIBITION): -21.6% | inhibition at 0.02 µM (HepDE19, Expt 1 (with TDF), Compound 1 0.020 μM alone, read-out: AVERAGE % INHIBITION): -21.6% | inhibition at 0.039 µM (HepDE19, Expt 1 (with TDF), Compound 1 0.039 μM alone, read-out: ADDITIVE INHIBITION): 0.64% | inhibition at 0.039 µM (HepDE19, Expt 1 (with TDF), Compound 1 0.039 μM alone, read-out: AVERAGE % INHIBITION): 0.64% | inhibition at 0.156 µM (HepDE19, Expt 1 (with TDF), Compound 1 0.156 μM alone, read-out: ADDITIVE INHIBITION): 68.2% | inhibition at 0.156 µM (HepDE19, Expt 1 (with TDF), Compound 1 0.156 μM alone, read-out: AVERAGE % INHIBITION): 68.2% | inhibition at 1.25 µM (HepDE19, Expt 1 (with TDF), Compound 1 1.250 μM alone, read-out: ADDITIVE INHIBITION): 97.3% | inhibition at 1.25 µM (HepDE19, Expt 1 (with TDF), Compound 1 1.250 μM alone, read-out: AVERAGE % INHIBITION): 97.3% | inhibition at 0.007 µM (HepDE19, Expt 1, Cmpd 1 0.007 μM alone, read-out: AVERAGE % INHIBITION): -23.5% | inhibition at 0.067 µM (HepDE19, Expt 1, Cmpd 1 0.067 μM alone): 43.7% | inhibition at 0.2 µM (HepDE19, Expt 1, Cmpd 1 0.200 μM alone): 78.4% | inhibition at 0.6 µM (HepDE19, Expt 1, Cmpd 1 0.600 μM alone): 92.9% | inhibition at 0.005 µM (HepDE19, Expt 1, Compound 1 0.005 μM alone, read-out: AVERAGE % INHIBITION): -81.7% | inhibition at 0.01 µM (HepDE19, Expt 1, Compound 1 0.010 μM alone, read-out: AVERAGE % INHIBITION): -86.4% | inhibition at 0.02 µM (HepDE19, Expt 1, Compound 1 0.020 μM alone, read-out: AVERAGE % INHIBITION): -84.7% | inhibition at 0.039 µM (HepDE19, Expt 1, Compound 1 0.039 μM alone, read-out: AVERAGE % INHIBITION): -14.2% | inhibition at 0.156 µM (HepDE19, Expt 1, Compound 1 0.156 μM alone, read-out: AVERAGE % INHIBITION): 59.4% | inhibition at 1.25 µM (HepDE19, Expt 1, Compound 1 1.250 μM alone, read-out: AVERAGE % INHIBITION): 98.3% | inhibition at 0.007 µM (HepDE19, Expt 2 (with TDF), Compound 1 0.007 μM alone, read-out: AVERAGE % INHIBITION): -35.1% | inhibition at 0.067 µM (HepDE19, Expt 2 (with TDF), Compound 1 0.067 μM alone): 28.1% | inhibition at 0.2 µM (HepDE19, Expt 2 (with TDF), Compound 1 0.200 μM alone): 80.5% | inhibition at 0.6 µM (HepDE19, Expt 2 (with TDF), Compound 1 0.600 μM alone): 95.2% | inhibition at 0.005 µM (HepDE19, Expt 2, Cmpd 1 0.005 μM alone, read-out: AVERAGE % INHIBITION): 5.58% | inhibition at 0.01 µM (HepDE19, Expt 2, Cmpd 1 0.010 μM alone, read-out: AVERAGE % INHIBITION): -0.61% | inhibition at 0.02 µM (HepDE19, Expt 2, Cmpd 1 0.020 μM alone, read-out: AVERAGE % INHIBITION): 6.6% | inhibition at 0.039 µM (HepDE19, Expt 2, Cmpd 1 0.039 μM alone, read-out: AVERAGE % INHIBITION): 25.9% | inhibition at 0.156 µM (HepDE19, Expt 2, Cmpd 1 0.156 μM alone, read-out: AVERAGE % INHIBITION): 84.1% | inhibition at 1.25 µM (HepDE19, Expt 2, Cmpd 1 1.250 μM alone, read-out: AVERAGE % INHIBITION): 98.3%
